Legend:
[1] = molecular target: T1, Sodium-dependent serotonin transporter (Homo sapiens, UniProt P31645); assay: Binding affinity for serotonin transporter (SERT) using [125I]RTI-55
Target sequence in this assay (P31645 whole entry): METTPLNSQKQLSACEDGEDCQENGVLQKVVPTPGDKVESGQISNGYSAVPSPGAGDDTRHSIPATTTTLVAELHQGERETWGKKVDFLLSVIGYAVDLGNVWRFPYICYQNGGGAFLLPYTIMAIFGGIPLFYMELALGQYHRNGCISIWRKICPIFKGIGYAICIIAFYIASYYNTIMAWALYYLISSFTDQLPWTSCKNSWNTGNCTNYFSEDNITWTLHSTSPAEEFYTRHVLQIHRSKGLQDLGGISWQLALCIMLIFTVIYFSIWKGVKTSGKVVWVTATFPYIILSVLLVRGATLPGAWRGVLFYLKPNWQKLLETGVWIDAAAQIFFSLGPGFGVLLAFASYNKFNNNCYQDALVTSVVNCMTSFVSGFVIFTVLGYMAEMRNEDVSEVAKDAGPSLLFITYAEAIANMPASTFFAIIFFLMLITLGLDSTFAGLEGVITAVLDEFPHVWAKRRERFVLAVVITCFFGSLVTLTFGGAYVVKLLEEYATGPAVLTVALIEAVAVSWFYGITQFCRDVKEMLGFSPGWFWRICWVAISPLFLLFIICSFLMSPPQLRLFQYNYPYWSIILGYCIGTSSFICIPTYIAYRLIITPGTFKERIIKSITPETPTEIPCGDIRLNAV

[2] = molecular target: T1, Sodium-dependent serotonin transporter; assay: Ratio of Ki value towards Serotonin transporter (SERT) to that of Dopamine transporter (DAT)
Target sequence in this assay (P31645 whole entry, looked up): as the sequence (P31645 whole entry) above

[3] = molecular target: T2, Sodium-dependent dopamine transporter (Homo sapiens, UniProt Q01959); assay: Compound was tested for the inhibition of dopamine (DA) reuptake; type: functional
T2 sequence (Q01959 whole entry): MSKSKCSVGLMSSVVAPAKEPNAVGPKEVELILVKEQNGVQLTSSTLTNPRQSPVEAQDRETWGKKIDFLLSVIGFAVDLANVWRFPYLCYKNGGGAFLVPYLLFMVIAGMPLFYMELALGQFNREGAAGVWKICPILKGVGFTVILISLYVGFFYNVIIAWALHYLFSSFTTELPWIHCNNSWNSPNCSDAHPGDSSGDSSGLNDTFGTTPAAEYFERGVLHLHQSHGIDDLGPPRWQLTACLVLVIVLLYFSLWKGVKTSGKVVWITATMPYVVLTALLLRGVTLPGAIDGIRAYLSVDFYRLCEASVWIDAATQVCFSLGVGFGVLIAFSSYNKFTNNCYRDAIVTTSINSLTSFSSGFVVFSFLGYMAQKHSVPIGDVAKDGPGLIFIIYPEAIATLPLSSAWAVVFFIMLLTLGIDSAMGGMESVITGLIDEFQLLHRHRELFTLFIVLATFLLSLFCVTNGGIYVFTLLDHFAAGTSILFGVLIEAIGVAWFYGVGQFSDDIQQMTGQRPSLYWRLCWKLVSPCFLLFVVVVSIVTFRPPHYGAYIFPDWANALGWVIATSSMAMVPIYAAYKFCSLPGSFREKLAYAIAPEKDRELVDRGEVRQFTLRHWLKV

[4] = molecular target: Sodium-dependent noradrenaline transporter (Homo sapiens, UniProt P23975); assay: Compound was tested for the inhibition of norepinephrine (NE) reuptake; type: functional
Sodium-dependent noradrenaline transporter, sequence (P23975 whole entry): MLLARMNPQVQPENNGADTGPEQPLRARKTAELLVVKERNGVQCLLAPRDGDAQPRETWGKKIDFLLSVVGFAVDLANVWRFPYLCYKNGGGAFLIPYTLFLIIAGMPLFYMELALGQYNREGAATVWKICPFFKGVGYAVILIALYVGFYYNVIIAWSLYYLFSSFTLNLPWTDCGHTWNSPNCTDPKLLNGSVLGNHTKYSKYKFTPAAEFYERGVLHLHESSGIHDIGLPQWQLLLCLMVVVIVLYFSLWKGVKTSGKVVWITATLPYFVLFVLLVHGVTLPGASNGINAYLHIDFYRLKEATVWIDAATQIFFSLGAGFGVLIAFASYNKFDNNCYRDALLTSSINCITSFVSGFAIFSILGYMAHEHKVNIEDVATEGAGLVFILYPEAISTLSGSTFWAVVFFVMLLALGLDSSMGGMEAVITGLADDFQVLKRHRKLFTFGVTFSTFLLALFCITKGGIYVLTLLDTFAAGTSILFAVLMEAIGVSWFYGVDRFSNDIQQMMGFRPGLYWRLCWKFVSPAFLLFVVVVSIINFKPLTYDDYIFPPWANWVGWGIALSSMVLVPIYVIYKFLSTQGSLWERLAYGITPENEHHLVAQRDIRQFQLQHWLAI

[5] = molecular target: T1, Sodium-dependent serotonin transporter; assay: Compound was tested for the inhibition of serotonin (5-HT) reuptake; type: functional
Target sequence in this assay (P31645 whole entry): as the sequence (P31645 whole entry) above

[6] = molecular target: T2, Sodium-dependent dopamine transporter; assay: Binding affinity towards dopamine transporter (DAT) by using [125I]RTI-55 radioligand

Q: Which Ki [1] does the source give for Fc1ccc(C(OCCC2CCN(Cc3cc4ccccc4[nH]3)CC2)c2ccc(F)cc2)cc1 here?
A: 88 nM

Q: And the Ratio [2]?
A: 121

Q: Which IC50 [3] does the source give for Fc1ccc(C(OCCC2CCN(Cc3ccc4ccccc4c3)CC2)c2ccc(F)cc2)cc1 here?
A: 7.2 nM

Q: And the IC50 [4]?
A: 93 nM

Q: And the IC50 [5]?
A: 277 nM

Q: What about the Ki [1] of the same molecule?
A: 229 nM

Q: And the Ratio [2]?
A: 323

Q: Which Ki [1] does the source give for Fc1ccc(C(OCCC2CCN(CC#Cc3ccccc3)CC2)c2ccc(F)cc2)cc1 here?
A: 164 nM

Q: And the Ratio [2]?
A: 31

Q: How did the Ki [6] turn out when Fc1ccc(C(OCCC2CCN(Cc3cccc4ccccc34)CC2)c2ccc(F)cc2)cc1 was run?
A: 16 nM

Q: What about the Ki [1] of the same molecule?
A: 370 nM

Q: And the Ratio [2]?
A: 23

Q: What does the source list for Fc1ccc(C(OCCC2CCN(CCCc3ccccc3)CC2)c2ccc(F)cc2)cc1?
A: Ki [6]: 1.1 nM; Ki [1]: 68 nM; Ratio [2]: 65

Q: Which results are given for Fc1ccc(C(OCCC2CCN(C/C=C/c3ccccc3)CC2)c2ccc(F)cc2)cc1?
A: Ki [6]: 0.45 nM; Ki [1]: 47 nM; Ratio [2]: 104

Q: With Fc1ccc(C(OCCC2CCN(C/C=C/c3ccco3)CC2)c2ccc(F)cc2)cc1 as the molecule, how does the Ki [6] read?
A: 0.99 nM

Q: What about the Ki [1] of the same molecule?
A: 41 nM

Q: What about the Ratio [2] of the same molecule?
A: 41

Q: For Fc1ccc(C(OCCC2CCN(Cc3cc4ccccc4s3)CC2)c2ccc(F)cc2)cc1, which IC50 [3] is on record?
A: 11.9 nM

Q: What about the IC50 [4] of the same molecule?
A: 260 nM

Q: And the IC50 [5]?
A: 1040 nM

Q: And the Ki [1]?
A: 246 nM

Q: And the Ratio [2]?
A: 153

Q: For Fc1ccc(C(OCCC2CCN(C/C=C/c3cccs3)CC2)c2ccc(F)cc2)cc1, which Ki [6] is on record?
A: 1.3 nM

Q: And the Ki [1]?
A: 45 nM

Q: What about the Ratio [2] of the same molecule?
A: 35

Q: Which results are given for Fc1ccc(C(OCCC2CCN(Cc3cc4ccccc4o3)CC2)c2ccc(F)cc2)cc1?
A: Ki [1]: 85 nM; Ratio [2]: 84

From ChEMBL document CHEMBL1136002 (J Med Chem, 2002)
